Test results: publication PMC3959874 (European journal of dermatology : EJD, 2013)

Legend:
CYP450, 1A2 = CYP450, 1A2 (Homo sapiens, UniProt P05177); test: Cytochrome P450 enzyme assay; format: in vitro ADME; settings: 10 μM; 37 °C, 30 min
CYP450, 2C19 = CYP450, 2C19 (Homo sapiens, UniProt P33261); test: Cytochrome P450 enzyme assay; format: in vitro ADME; settings: 10 μM; 37 °C, 45 min
CYP450, 2C9 = CYP450, 2C9 (Homo sapiens, UniProt P11712); test: Cytochrome P450 enzyme assay; format: in vitro ADME; settings: 10 μM; 37 °C, 45 min
CYP450, 2D6 = CYP450, 2D6 (Homo sapiens, UniProt P10635); test: Cytochrome P450 enzyme assay; format: in vitro ADME; settings: 10 μM; 37 °C, 45 min
Adenosine A2A = Adenosine A2A (Homo sapiens, UniProt P29274); test: Radioligand binding assay; settings: 10 μM; 25 °C, 90 min
Adrenergic a1B = Adrenergic a1B (Rattus norvegicus, UniProt P15823); test: Radioligand binding assay; settings: 10 μM; 25 °C, 60 min
Adrenergic a2A = Adrenergic a2A (Homo sapiens, UniProt P08913); test: Radioligand binding assay; settings: 10 μM; 25 °C, 60 min
Bradykinin B1 = Bradykinin B1 (Homo sapiens, UniProt P46663); test: Radioligand binding assay; settings: 10 μM; 25 °C, 60 min
Bradykinin B2 = Bradykinin B2 (Homo sapiens, UniProt P30411); test: Radioligand binding assay; settings: 10 μM; 25 °C, 60 min
[1] = tested on: Calcium Channel L-Type, Benzothiazepine; test: Radioligand binding assay; parameters: species or system rat; settings: 10 μM; 4 °C, 180 min
Cannabinoid CB1 = Cannabinoid CB1 (Homo sapiens, UniProt P21554); test: Radioligand binding assay; settings: 10 μM; 37 °C, 90 min
Endothelin ETA = Endothelin ETA (Homo sapiens, UniProt P25101); test: Radioligand binding assay; settings: 10 μM; 37 °C, 120 min
Endothelin ETB = Endothelin ETB (Homo sapiens, UniProt P24530); test: Radioligand binding assay; settings: 10 μM; 25 °C, 120 min
[2] = target: Epidermal Growth Factor (EG F) (Homo sapiens, UniProt P00533); test: Radioligand binding assay; settings: 10 μM; 25 °C, 60 min
Estrogen ERa = Estrogen ERa (Homo sapiens, UniProt P03372); test: Radioligand binding assay; settings: 10 μM; 25 °C, 120 min
GABAA, Muscimol, Central = test: Radioligand binding assay; parameters: species or system rat; settings: 10 μM; 4 °C, 10 min
Glucocorticoid = Glucocorticoid (Homo sapiens, UniProt P04150); test: Radioligand binding assay; settings: 10 μM; 25 °C, 120 min
[3] = tested on: Glutamate, NMDA, Phencyclidine; test: Radioligand binding assay; parameters: species or system rat; settings: 10 μM; 25 °C, 45 min
Histamine H1 = Histamine H1 (Homo sapiens, UniProt P35367); format: binding; settings: 10 μM; 25 °C, 180 min
Histamine H3 = Histamine H3 (Homo sapiens, UniProt Q9Y5N1); test: Radioligand binding assay; settings: 10 μM; 25 °C, 120 min
Imidazoline I2, Central = test: Radioligand binding assay; parameters: species or system rat; settings: 10 μM; 25 °C, 30 min
Muscarinic M1 = Muscarinic M1 (Homo sapiens, UniProt P11229); format: binding; settings: 10 μM; 25 °C, 120 min
Muscarinic M3 = Muscarinic M3 (Homo sapiens, UniProt P20309); format: binding; settings: 10 μM; 25 °C, 120 min
Neuropeptide Y Y2 = Neuropeptide Y Y2 (Homo sapiens, UniProt P49146); test: Radioligand binding assay; settings: 10 μM; 37 °C, 120 min
[4] = target: Nicotinic Acetylcholine a1, Bungarotoxin (Homo sapiens, UniProt P02708+P07510+Q07001); test: Radioligand binding assay; settings: 10 μM; 25 °C, 120 min
Opiate 51 (OP1, DOP) = Opiate 51 (OP1, DOP) (Homo sapiens, UniProt P41143); test: Radioligand binding assay; settings: 10 μM; 25 °C, 60 min
Opiate n (OP3, MOP) = Opiate n (OP3, MOP) (Homo sapiens, UniProt P35372); test: Radioligand binding assay; settings: 10 μM; 25 °C, 60 min
Phorbol Ester = test: Radioligand binding assay; parameters: species or system mouse; settings: 10 μM; 25 °C, 60 min
[5] = target: Platelet Activating Factor (PA F) (Homo sapiens, UniProt P25105); test: Radioligand binding assay; settings: 10 μM; 25 °C, 180 min
Potassium Channel [KATP] = test: Radioligand binding assay; parameters: species or system human; settings: 10 μM; 25 °C, 120 min
Potassium Channel hERG = Potassium Channel hERG (Homo sapiens, UniProt Q12809); test: Radioligand binding assay; settings: 10 μM; 25 °C, 60 min
Purinergic P2x = test: Radioligand binding assay; parameters: species or system rabbit; settings: 10 μM; 25 °C, 30 min
Purinergic P2, = test: Radioligand binding assay; parameters: species or system rat; settings: 10 μM; 25 °C, 60 min
Sigma al = Sigma al (Homo sapiens, UniProt Q99720); test: Radioligand binding assay; settings: 10 μM; 37 °C, 240 min
[6] = tested on: Sodium Channel, Site 2 289593; test: Radioligand binding assay; parameters: species or system rat; settings: 10 μM; 37 °C, 60 min
Transporter, GABA = Transporter, GABA (Rattus norvegicus, UniProt P23978); test: Radioligand binding assay; settings: 10 μM; 25 °C, 20 min
[7] = target: Transporter, Norepinephrine (NET) (Homo sapiens, UniProt P23975); test: Radioligand binding assay; settings: 10 μM; 4 °C, 180 min
[8] = target: Transporter, Serotonin (5-Hyd roxytryptamine) (SERT) (Homo sapiens, UniProt P31645); format: binding; settings: 10 μM; 25 °C, 60 min
human whole blood = test: Cytokine induction in human whole blood assay; format: cell-based; settings: three donors (figures 1D–F)
TLR7 = test: In vitro TLR7-dependent cytokine induction, overall potency comparison; format: cell-based
[9] = Serum drug concentration after topical skin application; settings: mice, TMX-202 from TMX-202 gel, IMQ from Aldara

Sequence of Adenosine A2A (P29274 whole entry): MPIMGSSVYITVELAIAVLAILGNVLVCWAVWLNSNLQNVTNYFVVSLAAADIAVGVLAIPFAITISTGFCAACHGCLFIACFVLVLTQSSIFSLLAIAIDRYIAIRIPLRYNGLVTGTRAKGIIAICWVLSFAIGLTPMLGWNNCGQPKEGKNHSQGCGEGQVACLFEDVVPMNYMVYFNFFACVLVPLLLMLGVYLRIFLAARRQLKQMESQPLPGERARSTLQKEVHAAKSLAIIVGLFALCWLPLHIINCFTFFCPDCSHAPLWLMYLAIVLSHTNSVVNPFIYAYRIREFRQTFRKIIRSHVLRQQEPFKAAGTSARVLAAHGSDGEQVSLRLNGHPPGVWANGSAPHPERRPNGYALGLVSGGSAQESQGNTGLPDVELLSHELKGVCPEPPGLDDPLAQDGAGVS
Sequence of Bradykinin B1 (P46663 whole entry): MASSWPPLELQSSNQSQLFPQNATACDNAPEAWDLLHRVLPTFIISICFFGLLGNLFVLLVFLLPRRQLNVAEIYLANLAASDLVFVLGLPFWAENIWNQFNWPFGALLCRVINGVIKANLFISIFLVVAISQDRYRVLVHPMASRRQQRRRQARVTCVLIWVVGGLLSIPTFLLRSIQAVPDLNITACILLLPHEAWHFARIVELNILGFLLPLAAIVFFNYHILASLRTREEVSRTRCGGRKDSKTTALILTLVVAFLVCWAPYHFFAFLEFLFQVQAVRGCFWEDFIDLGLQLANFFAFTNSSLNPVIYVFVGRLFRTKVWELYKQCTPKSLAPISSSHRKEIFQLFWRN
Sequence of Neuropeptide Y Y2 (P49146 whole entry): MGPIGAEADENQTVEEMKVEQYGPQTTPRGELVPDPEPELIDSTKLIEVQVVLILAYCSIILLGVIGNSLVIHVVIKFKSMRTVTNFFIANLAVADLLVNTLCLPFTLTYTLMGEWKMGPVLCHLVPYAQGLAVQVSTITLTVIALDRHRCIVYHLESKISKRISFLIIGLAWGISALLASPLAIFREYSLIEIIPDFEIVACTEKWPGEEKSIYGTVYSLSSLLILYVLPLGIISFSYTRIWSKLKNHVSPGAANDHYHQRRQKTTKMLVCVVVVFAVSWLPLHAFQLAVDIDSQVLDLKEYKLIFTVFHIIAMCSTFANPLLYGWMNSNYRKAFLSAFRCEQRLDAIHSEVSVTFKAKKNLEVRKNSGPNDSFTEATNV
Sequence of Opiate 51 (OP1, DOP) (P41143 whole entry): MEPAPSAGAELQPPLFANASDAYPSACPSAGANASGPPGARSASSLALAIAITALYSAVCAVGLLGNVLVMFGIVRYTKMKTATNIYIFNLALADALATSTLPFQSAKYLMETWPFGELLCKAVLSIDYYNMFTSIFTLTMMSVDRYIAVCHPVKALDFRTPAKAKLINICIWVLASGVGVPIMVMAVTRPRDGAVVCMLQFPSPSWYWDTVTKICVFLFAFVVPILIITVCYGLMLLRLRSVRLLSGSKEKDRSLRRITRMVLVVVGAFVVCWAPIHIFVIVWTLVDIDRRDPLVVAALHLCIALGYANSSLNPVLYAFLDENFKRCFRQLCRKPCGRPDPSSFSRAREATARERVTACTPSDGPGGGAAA
Sequence of Histamine H1 (P35367 whole entry): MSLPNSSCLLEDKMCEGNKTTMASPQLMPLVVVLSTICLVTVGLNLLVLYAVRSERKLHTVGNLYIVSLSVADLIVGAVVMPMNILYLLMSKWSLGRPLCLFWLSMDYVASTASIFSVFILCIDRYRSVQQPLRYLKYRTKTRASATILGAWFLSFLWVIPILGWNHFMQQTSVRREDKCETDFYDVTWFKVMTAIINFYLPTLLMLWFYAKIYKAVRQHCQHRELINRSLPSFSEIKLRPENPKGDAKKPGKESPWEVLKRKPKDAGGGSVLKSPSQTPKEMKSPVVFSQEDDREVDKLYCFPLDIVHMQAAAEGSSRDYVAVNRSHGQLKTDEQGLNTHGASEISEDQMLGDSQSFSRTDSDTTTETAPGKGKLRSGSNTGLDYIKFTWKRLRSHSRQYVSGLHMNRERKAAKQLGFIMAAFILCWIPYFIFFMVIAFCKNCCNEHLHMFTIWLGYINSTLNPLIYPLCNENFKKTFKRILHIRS
Sequence of Endothelin ETB (P24530 27-442): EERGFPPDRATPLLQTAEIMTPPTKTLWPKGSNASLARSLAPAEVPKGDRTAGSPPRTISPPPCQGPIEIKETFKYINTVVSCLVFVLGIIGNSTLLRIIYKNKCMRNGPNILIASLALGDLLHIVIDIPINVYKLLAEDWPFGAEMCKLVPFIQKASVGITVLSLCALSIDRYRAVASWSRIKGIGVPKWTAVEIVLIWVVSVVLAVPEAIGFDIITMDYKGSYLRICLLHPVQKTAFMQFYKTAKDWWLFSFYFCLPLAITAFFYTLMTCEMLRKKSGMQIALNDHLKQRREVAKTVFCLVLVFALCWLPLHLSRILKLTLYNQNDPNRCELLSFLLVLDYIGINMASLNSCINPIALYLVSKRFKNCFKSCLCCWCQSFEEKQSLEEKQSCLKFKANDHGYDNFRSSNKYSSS
Sequence of Adrenergic a2A (P08913 whole entry): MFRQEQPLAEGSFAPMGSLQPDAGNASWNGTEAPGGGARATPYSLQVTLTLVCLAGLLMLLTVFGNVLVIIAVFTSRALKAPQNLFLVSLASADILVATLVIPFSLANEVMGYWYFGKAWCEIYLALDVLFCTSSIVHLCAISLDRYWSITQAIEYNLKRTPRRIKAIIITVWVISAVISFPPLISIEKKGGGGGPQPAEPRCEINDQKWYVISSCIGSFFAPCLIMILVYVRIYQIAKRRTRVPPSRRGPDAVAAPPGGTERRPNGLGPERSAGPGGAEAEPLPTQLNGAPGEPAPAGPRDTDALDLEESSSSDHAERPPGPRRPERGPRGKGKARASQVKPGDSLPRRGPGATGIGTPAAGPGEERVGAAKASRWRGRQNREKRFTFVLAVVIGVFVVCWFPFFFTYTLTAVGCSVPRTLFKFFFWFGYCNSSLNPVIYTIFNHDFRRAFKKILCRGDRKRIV
Sequence of Adrenergic a1B (P15823 whole entry): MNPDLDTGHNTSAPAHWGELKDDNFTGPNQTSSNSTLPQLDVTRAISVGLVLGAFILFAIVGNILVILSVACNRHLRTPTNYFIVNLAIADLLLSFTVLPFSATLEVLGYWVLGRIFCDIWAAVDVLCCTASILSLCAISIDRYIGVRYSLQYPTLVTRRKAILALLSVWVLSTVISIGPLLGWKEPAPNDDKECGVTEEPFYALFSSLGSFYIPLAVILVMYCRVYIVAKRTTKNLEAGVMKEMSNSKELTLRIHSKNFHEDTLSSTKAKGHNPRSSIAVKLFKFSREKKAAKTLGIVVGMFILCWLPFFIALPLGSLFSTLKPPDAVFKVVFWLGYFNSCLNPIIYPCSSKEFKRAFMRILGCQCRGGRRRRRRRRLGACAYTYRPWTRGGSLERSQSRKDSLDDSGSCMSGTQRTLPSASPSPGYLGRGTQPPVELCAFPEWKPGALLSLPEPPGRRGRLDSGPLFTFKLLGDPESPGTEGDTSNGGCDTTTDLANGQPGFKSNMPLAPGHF
Sequence of Muscarinic M1 (P11229 whole entry): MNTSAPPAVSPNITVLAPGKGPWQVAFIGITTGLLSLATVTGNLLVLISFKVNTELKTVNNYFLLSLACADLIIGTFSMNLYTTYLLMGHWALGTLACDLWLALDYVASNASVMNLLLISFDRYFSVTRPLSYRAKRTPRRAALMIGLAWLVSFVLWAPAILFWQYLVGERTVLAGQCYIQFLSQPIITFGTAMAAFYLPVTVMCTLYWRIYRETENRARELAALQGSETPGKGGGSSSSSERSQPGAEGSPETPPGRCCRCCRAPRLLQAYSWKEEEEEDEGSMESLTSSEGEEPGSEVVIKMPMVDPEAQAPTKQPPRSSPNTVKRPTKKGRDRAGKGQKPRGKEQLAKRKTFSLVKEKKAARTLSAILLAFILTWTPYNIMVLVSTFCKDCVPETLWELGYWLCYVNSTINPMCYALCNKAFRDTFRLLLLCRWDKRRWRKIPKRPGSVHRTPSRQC
Sequence of CYP450, 2D6 (P10635 whole entry): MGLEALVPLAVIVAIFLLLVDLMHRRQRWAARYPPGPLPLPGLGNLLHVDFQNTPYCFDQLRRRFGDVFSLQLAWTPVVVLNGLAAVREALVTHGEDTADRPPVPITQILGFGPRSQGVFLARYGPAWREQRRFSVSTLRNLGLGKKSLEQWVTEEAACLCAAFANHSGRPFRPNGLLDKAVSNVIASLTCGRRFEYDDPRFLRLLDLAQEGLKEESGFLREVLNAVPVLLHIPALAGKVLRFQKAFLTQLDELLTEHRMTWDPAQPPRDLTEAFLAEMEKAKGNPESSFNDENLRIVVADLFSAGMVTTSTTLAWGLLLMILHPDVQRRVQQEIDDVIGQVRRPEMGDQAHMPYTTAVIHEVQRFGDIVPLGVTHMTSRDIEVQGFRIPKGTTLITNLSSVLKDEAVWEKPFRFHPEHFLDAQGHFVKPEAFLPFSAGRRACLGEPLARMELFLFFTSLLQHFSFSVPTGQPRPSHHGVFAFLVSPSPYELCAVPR
Sequence of Histamine H3 (Q9Y5N1 whole entry): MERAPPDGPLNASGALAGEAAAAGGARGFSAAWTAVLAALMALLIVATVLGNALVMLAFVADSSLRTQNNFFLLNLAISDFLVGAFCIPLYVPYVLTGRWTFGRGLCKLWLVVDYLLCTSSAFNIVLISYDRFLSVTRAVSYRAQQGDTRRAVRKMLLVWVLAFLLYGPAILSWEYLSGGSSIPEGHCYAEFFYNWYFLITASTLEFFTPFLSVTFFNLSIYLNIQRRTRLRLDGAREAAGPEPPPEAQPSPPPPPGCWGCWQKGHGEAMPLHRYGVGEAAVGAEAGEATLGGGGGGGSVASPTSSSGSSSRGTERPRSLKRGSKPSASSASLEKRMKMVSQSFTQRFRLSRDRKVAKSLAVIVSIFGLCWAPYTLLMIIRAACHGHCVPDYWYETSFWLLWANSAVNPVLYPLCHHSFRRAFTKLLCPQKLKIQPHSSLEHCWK

Which “Percent inhibition of enzyme activity” value (CYP450, 1A2) does the source give for `CCCCCCCCCCCC(=O)OC[C@@H](COP(=O)(O)OCCNC(=O)c1ccc(Cn2c(=O)[nH]c3c(N)nc(OCCOC)nc32)cc1)OC(=O)CCCCCCCCCCC` [TMX-202] here?
Its value is −4%.

And the “Percent inhibition of enzyme activity” value (CYP450, 2C19)?
The value was 1%.

What about the “Percent inhibition of enzyme activity” value (CYP450, 2C9) of the same molecule?
The value was −4%.

What about the “Percent inhibition of enzyme activity” value (CYP450, 2D6) of the same molecule?
Its value is 0%.

And the “Percent inhibition of specific radioligand binding” value (Adenosine A2A)?
The value was −8%.

What about the “Percent inhibition of specific radioligand binding” value (Adrenergic a1B) of the same molecule?
Its value is 0%.

And the “Percent inhibition of specific radioligand binding” value (Adrenergic a2A)?
Its value is 3%.

And the “Percent inhibition of specific radioligand binding” value (Bradykinin B1)?
The value was 3%.

What about the “Percent inhibition of specific radioligand binding” value (Bradykinin B2) of the same molecule?
The value was −2%.

What about the “Percent inhibition of specific radioligand binding” value [1] of the same molecule?
Its value is 1%.

What about the “Percent inhibition of specific radioligand binding” value (Cannabinoid CB1) of the same molecule?
Its value is −14%.

What about the “Percent inhibition of specific radioligand binding” value (Endothelin ETA) of the same molecule?
The value was 13%.

What about the “Percent inhibition of specific radioligand binding” value (Endothelin ETB) of the same molecule?
Its value is −7%.

And the “Percent inhibition of specific radioligand binding” value [2]?
The value was 6%.

And the “Percent inhibition of specific radioligand binding” value (Estrogen ERa)?
Its value is 7%.

What about the “Percent inhibition of specific radioligand binding” value (GABAA, Muscimol, Central) of the same molecule?
Its value is −3%.

And the “Percent inhibition of specific radioligand binding” value (Glucocorticoid)?
The value was −1%.

What about the “Percent inhibition of specific radioligand binding” value [3] of the same molecule?
Its value is 2%.

And the “Percent inhibition of specific radioligand binding” value (Histamine H1)?
The value was −6%.

What about the “Percent inhibition of specific radioligand binding” value (Histamine H3) of the same molecule?
Its value is −14%.

What about the “Percent inhibition of specific radioligand binding” value (Imidazoline I2, Central) of the same molecule?
The value was −3%.

What about the “Percent inhibition of specific radioligand binding” value (Muscarinic M1) of the same molecule?
Its value is 0%.

And the “Percent inhibition of specific radioligand binding” value (Muscarinic M3)?
The value was −6%.

What about the “Percent inhibition of specific radioligand binding” value (Neuropeptide Y Y2) of the same molecule?
Its value is 4%.

What about the “Percent inhibition of specific radioligand binding” value [4] of the same molecule?
Its value is −3%.

What about the “Percent inhibition of specific radioligand binding” value (Opiate 51 (OP1, DOP)) of the same molecule?
Its value is 5%.

What about the “Percent inhibition of specific radioligand binding” value (Opiate n (OP3, MOP)) of the same molecule?
The value was 42%.

And the “Percent inhibition of specific radioligand binding” value (Phorbol Ester)?
Its value is −8%.

What about the “Percent inhibition of specific radioligand binding” value [5] of the same molecule?
Its value is 33%.

What about the “Percent inhibition of specific radioligand binding” value (Potassium Channel [KATP]) of the same molecule?
Its value is 8%.

What about the “Percent inhibition of specific radioligand binding” value (Potassium Channel hERG) of the same molecule?
Its value is −4%.

And the “Percent inhibition of specific radioligand binding” value (Purinergic P2x)?
The value was 9%.

What about the “Percent inhibition of specific radioligand binding” value (Purinergic P2,) of the same molecule?
Its value is 8%.

What about the “Percent inhibition of specific radioligand binding” value (Sigma al) of the same molecule?
The value was −5%.

And the “Percent inhibition of specific radioligand binding” value [6]?
The value was 15%.

What about the “Percent inhibition of specific radioligand binding” value (Transporter, GABA) of the same molecule?
The value was 1%.

What about the “Percent inhibition of specific radioligand binding” value [7] of the same molecule?
Its value is 57%.

And the “Percent inhibition of specific radioligand binding” value [8]?
Its value is 18%.

And the “Potency of hIL-12, hIL-6 and hIFN-α induction compared with IMQ” value (human whole blood)?
The value was “higher potency”.

What about the “Potency relative to IMQ in causing TLR7-dependent cytokine induction” value (TLR7) of the same molecule?
The value was 100 times.

What about the “Serum level of the compound one hour after the application” value [9] of the same molecule?
Its value is 2.6 ± 0.6 pg/mL.
